# Reference: article PMC6651501, “Design, Synthesis and Biological Evaluation of Novel Osimertinib-Based HDAC and EGFR Dual Inhibitors” (Molecules, 2019)
# Assays:
# [1] = system: PC-3; assay: In vitro anti-proliferative MTT assay; format: cell-based; settings: Homo sapiens, 72 h
# [2] = system: MDA-MB-231; assay: In vitro anti-proliferative MTT assay; settings: Homo sapiens, MDA-MB-231, 72 h, read-out: IC50 MDA-MB-231
# Experimental: (§2) Cell proliferation assay was determined by the MTT (3-[4,5-dimethyl-2-thiazolyl]-2,5-diphenyl-2H-tetrazolium bromide) method. Briefly, cells were passaged the day before dosing into a 96-well plate, allowed to grow for 12 h, and then treated with different concentrations of compound for 72 h. A 0.5% MTT solution was added to each well. After incubation for another 4 h, formazan formed from MTT was extracted by adding 200 μL of DMSO. Absorbance was then determined using a microplate reader at 570 nm.
# [3] = system: HT-29; assay: In vitro anti-proliferative MTT assay; settings: Homo sapiens, HT-29, 72 h, read-out: IC50 HT-29
# Experimental: as §2
# [4] = system: A549; assay: In vitro anti-proliferative MTT assay; format: cell-based; settings: Homo sapiens, 72 h
# [5] = system: KG-1; assay: In vitro anti-proliferative MTT assay; settings: Homo sapiens, KG-1, 72 h, read-out: IC50 KG-1
# Experimental: as §2
# [6] = system: HeLa; assay: In vitro anti-proliferative MTT assay; settings: Homo sapiens, 72 h, read-out: IC50 HeLa
# Experimental: as §2
# [7] = system: MDA-MB-468; assay: In vitro anti-proliferative MTT assay; settings: Homo sapiens, MDA-MB-468, 72 h, read-out: IC50 MDA-MB-468
# Experimental: as §2
# [8] = target: EGFR (T790M) (Homo sapiens, UniProt P00533, T790M); assay: In vitro EGFR inhibition, Kinase-Glo Plus luminescence kinase assay; format: biochemical; settings: for inhibition at 1 µM: 1 μM compound, read-out: EGFR (T790M) Inhibition Rate at 1 μM; for IC50: 10 µM ATP
# Chain of EGFR (T790M) (P00533 25-1210 T790M): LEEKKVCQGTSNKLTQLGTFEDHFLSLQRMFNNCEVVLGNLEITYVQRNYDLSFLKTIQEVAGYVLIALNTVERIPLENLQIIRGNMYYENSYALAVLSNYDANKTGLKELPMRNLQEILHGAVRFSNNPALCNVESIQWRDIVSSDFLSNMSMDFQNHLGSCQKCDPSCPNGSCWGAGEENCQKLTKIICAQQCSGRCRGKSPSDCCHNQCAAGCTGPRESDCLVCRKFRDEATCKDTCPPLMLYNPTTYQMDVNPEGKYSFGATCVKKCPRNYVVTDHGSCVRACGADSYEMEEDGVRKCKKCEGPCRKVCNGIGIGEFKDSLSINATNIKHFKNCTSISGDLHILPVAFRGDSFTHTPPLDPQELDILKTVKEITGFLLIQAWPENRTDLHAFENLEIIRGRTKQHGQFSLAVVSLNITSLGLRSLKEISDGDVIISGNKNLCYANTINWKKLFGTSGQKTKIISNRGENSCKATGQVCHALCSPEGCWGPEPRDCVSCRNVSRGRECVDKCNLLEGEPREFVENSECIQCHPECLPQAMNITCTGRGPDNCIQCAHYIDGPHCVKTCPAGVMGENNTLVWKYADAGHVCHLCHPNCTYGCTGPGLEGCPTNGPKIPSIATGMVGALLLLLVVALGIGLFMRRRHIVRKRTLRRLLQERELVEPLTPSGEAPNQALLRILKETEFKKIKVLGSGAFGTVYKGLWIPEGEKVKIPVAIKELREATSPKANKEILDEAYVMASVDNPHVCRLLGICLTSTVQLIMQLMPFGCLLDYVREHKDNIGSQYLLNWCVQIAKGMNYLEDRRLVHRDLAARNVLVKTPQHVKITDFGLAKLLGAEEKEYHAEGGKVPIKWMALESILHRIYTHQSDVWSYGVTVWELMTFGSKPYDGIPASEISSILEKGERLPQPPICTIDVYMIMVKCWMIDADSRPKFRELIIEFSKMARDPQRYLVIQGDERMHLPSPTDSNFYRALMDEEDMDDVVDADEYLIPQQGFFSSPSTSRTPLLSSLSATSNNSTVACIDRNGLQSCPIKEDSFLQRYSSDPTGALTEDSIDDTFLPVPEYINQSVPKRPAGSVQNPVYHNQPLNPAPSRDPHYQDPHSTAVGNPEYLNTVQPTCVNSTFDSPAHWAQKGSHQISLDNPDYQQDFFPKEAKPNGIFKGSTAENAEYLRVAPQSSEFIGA
# Experimental: (§1) The assay was performed using Kinase-Glo Plus luminescence kinase assay kit. All of the enzymatic reactions were conducted at 30 °C for 40 min. The 50 µL reaction mixture in assay buffer contained 10 µM ATP, EGFR kinases, and different concentrations of compounds. Kinase activity was measured by quantitating the amount of ATP remaining in solution following a kinase reaction. The luminescent signal from the assay is correlated with the amount of ATP present and is inversely correlated with the amount of kinase activity. The IC50 values were calculated using nonlinear regression with normalized dose−response fit using Prism GraphPad software (GraphPad Software, San Diego, CA, USA).
# [9] = system: HDAC (HeLa cell nuclear extract, mainly contains HDAC1 and 2); assay: In vitro HDACs inhibition fluorescent assay (HeLa cell nuclear extract); settings: read-out: HDAC IC50; HeLa cell nuclear extract as enzyme source
# Experimental: The HDAC inhibitory activities of all the target compounds were evaluated using HeLa cell nuclear extract (mainly contains HDAC1 and 2) as enzyme source.
# In brief, 10 μL of HeLa cell nuclear extract was mixed with different concentrations of tested compound (50 μL). […] The inhibition ratios were calculated from the fluorescence intensity readings of tested wells relative to those of control wells, and the IC50 values were calculated using a regression analysis of the concentration/inhibition data.
# [10] = target: EGFR (WT) (Homo sapiens, UniProt P00533); assay: In vitro EGFR inhibition, Kinase-Glo Plus luminescence kinase assay; format: biochemical; settings: 10 µM ATP
# Chain of EGFR (WT) (P00533 25-1210): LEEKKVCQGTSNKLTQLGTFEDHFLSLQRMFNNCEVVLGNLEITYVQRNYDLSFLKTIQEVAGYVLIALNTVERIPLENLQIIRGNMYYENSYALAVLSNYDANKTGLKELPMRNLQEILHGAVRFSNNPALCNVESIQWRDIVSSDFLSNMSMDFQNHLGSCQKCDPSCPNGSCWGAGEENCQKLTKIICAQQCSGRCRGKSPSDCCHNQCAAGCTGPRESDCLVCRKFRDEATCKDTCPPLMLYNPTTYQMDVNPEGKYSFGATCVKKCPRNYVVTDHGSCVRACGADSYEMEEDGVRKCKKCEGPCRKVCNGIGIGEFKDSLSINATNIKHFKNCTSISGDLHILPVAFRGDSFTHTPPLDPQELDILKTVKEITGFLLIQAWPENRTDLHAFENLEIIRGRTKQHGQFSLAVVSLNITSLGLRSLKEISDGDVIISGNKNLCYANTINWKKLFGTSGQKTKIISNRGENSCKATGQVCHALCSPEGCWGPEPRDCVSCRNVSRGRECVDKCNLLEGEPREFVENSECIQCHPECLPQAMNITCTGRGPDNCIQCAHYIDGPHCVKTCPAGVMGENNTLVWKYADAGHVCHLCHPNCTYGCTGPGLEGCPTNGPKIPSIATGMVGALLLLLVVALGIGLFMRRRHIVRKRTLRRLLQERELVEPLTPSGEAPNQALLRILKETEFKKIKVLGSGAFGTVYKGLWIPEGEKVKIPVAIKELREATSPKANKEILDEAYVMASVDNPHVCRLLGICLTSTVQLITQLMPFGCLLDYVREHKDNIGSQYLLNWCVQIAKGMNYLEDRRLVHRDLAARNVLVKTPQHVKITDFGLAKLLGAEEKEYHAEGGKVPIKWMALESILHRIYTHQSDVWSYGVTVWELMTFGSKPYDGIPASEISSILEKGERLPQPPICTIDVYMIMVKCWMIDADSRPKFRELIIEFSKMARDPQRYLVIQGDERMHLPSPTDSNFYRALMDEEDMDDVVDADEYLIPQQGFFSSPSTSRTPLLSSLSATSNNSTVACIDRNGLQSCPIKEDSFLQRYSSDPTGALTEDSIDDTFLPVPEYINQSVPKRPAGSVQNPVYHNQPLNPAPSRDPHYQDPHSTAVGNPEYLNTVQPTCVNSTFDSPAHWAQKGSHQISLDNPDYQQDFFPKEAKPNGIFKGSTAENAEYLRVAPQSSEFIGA
# Experimental: as §1
# [11] = target: LSD1 (Homo sapiens, UniProt O60341); assay: Amplex red coupled LSD1 inhibition assay; format: biochemical; settings: 10 μM compound
# Experimental: Lysine specific demethylase 1 (LSD1, also known as KDM1A) is a kind of epigenetic eraser, which catalyzes the oxidative demethylation of histone 3 methyllysine 4 (H3K4me1) and histone 3 dimethyllysine 4 (H3K4me2). It has been reported that LSD1 is overexpressed in various cancer cells and tissues, and regarded as a potential anticancer target.
# Amplex red coupled LSD1 inhibition assay was carried out following reported method. In brief, the compounds were incubated with the recombinant LSD1 and H3K4me2. After that, the fluorescence was measured at excitation wavelength 530 nm and emission wavelength 590 nm in order to evaluate the inhibition rate of the candidate compound.
# [12] = system: thirteen cancer-related kinases; assay: Kinases inhibition assay (Eurofins Cerep, LANCE detection); format: biochemical, human; settings: 100 nM compound, Figure 4
# Experimental: Compound 9E was further tested against thirteen cancer-related kinases to characterize its protein kinase selective profile.
# The kinase inhibition assays were performed by Eurofins Cerep Corporation in France. In brief, evaluation of the effects of compounds on the activity of the human kinases was quantified by measuring the phosphorylation of the corresponding substrate using human recombinant enzymes and the LANCE detection method.
# [13] = target: T1, BRD4 (BD1) (Homo sapiens, UniProt O60885); assay: BRD4 inhibition assay (TR-FRET); format: binding; settings: 1 μM compound
# T1 construct: using the recombinant BRD4 (BD1) and its corresponding ligand (BET)
# Experimental: The assay was performed by TR-FRET technology using the recombinant BRD4 (BD1) and its corresponding ligand (BET). The TR-FRET signal from the assay is correlated with the amount of ligand binding to the bromodomain. All of the binding reactions were conducted at room temperature. The 20 µL reaction mixture in assay buffer contained bromodomains, BET ligand and the indicated amount of inhibitor. For the negative control (blank), 5 µL of the assay buffer was added instead of the BET ligand. The reaction mixture was incubated for 120 min, then TR-FRET signal was measured using Tecan Infinite M1000 plate reader (Tecan, Männedorf, Switzerland).
Compound,IC50 [2],IC50 [3],IC50 [4],IC50 [5],IC50 [6],IC50 [7],inhibition at 1 µM [8],melting point,IC50 [9],also measured
"C=CC(=O)Nc1cc(Nc2nccc(-c3cn(C)c4ccccc34)n2)c(OC)cc1N(C)CCN(C)C [AZD9291, osimertinib]",3540 nM,870 nM,1970 nM,530 nM,3270 nM,1300 nM,–,–,–,IC50 [1]: 1230 nM
"Cn1cc(-c2ccnc(Nc3ccc(C(=O)NCCC(=O)NO)cc3)n2)c2ccccc21 [Compound 5A, N-(3-(hydroxyamino)-3-oxopropyl)-4-((4-(1-methyl-1H-indol-3-yl)pyrimidin-2-yl)amino) benzamide]",–,–,–,–,–,–,36%,164 to 167 °C,–,–
"Cn1cc(-c2ccnc(Nc3ccc(C(=O)NCCCC(=O)NO)cc3)n2)c2ccccc21 [Compound 5B, N-(4-(hydroxyamino)-4-oxobutyl)-4-((4-(1-methyl-1H-indol-3-yl)pyrimidin-2-yl)amino) benzamide]",–,–,–,–,–,–,34%,165 to 168 °C,–,–
"Cn1cc(-c2ccnc(Nc3ccc(C(=O)NCCCCC(=O)NO)cc3)n2)c2ccccc21 [Compound 5C, N-(5-(hydroxyamino)-5-oxopentyl)-4-((4-(1-methyl-1H-indol-3-yl)pyrimidin-2-yl)amino) benzamide]",–,–,–,–,–,–,42%,144 to 147 °C,462 nM,–
"Cn1cc(-c2ccnc(Nc3ccc(C(=O)NCCCCCC(=O)NO)cc3)n2)c2ccccc21 [Compound 5D, N-(6-(hydroxyamino)-6-oxohexyl)-4-((4-(1-methyl-1H-indol-3-yl)pyrimidin-2-yl)amino) benzamide]",1160 nM,2940 nM,3560 nM,1470 nM,4060 nM,660 nM,35%,168 to 170 °C,23 nM,–
"Cn1cc(-c2ccnc(Nc3ccc(C(=O)NCCCCCCC(=O)NO)cc3)n2)c2ccccc21 [Compound 5E, N-(7-(hydroxyamino)-7-oxoheptyl)-4-((4-(1-methyl-1H-indol-3-yl)pyrimidin-2-yl)amino) benzamide]",660 nM,1990 nM,2400 nM,520 nM,2790 nM,330 nM,44%,161 to 163 °C,105 nM,IC50 [1]: 2250 nM; IC50 [10]: 3200 nM; IC50 [8]: 1200 nM
"COc1cc(NC(=O)CCC(=O)NO)ccc1Nc1nccc(-c2cn(C)c3ccccc23)n1 [Compound 9A, N^1-hydroxy-N^4-(3-methoxy-4-((4-(1-methyl-1H-indol-3-yl)pyrimidin-2-yl)amino)phenyl) succinimide]",–,–,–,–,–,–,38%,151 to 153 °C,–,–
"COc1cc(NC(=O)CCCC(=O)NO)ccc1Nc1nccc(-c2cn(C)c3ccccc23)n1 [Compound 9B, N^1-hydroxy-N^5-(3-methoxy-4-((4-(1-methyl-1H-indol-3-yl)pyrimidin-2-yl)amino)phenyl) glutaramide]",–,–,–,–,–,–,37%,146 to 148 °C,–,–
"COc1cc(NC(=O)CCCCC(=O)NO)ccc1Nc1nccc(-c2cn(C)c3ccccc23)n1 [Compound 9C, N^1-hydroxy-N^6-(3-methoxy-4-((4-(1-methyl-1H-indol-3-yl)pyrimidin-2-yl)amino)phenyl) adipamide]",–,–,–,–,–,–,12%,118 to 120 °C,397 nM,–
"COc1cc(NC(=O)CCCCCC(=O)NO)ccc1Nc1nccc(-c2cn(C)c3ccccc23)n1 [Compound 9D, N^1-hydroxy-N^7-(3-methoxy-4-((4-(1-methyl-1H-indol-3-yl)pyrimidin-2-yl)amino)phenyl) heptanediamide]",3690 nM,4130 nM,5110 nM,3620 nM,5640 nM,1070 nM,13%,–,121 nM,IC50 [1]: 5450 nM
"COc1cc(NC(=O)CCCCCCC(=O)NO)ccc1Nc1nccc(-c2cn(C)c3ccccc23)n1 [Compound 9E, N^1-hydroxy-N^8-(3-methoxy-4-((4-(1-methyl-1H-indol-3-yl)pyrimidin-2-yl)amino)phenyl) octanediamide]",600 nM,790 nM,2190 nM,240 nM,1850 nM,230 nM,15%,–,85 nM,IC50 [1]: 3390 nM; LSD1 Inhibition Rate at 10 μM [11]: no significant inhibition; inhibition at 10 µM ([11]; read-out: LSD1 Inhibition Rate at 10 μM): 13%; IC50 [10]: 5700 nM; IC50 [8]: 5000 nM; Inhibition of 13 protein kinases at 100 nM [12]: no significant inhibition; BRD4 Inhibition Rate at 1 μM [13]: not active; inhibition at 1 µM ([13]; read-out: BRD4 Inhibition Rate at 1 μM): 0%
"Cn1cc(-c2ccnc(Nc3ccc(C(=O)NO)cc3)n2)c2ccccc21 [Compound 10A, N-hydroxy-4-((4-(1-methyl-1H-indol-3-yl)pyrimidin-2-yl)amino) benzamide]",–,–,–,–,–,–,41%,108 to 111 °C,–,–
"Cn1cc(-c2ccnc(Nc3ccc(C(=O)Nc4ccccc4N)cc3)n2)c2ccccc21 [Compound 10B, N-(2-aminophenyl)-4-((4-(1-methyl-1H-indol-3-yl)pyrimidin-2-yl)amino) benzamide]",–,–,–,–,–,–,40%,164 to 168 °C,–,–
"O=C(CCCCCCC(=O)Nc1ccccc1)NO [SAHA, suberoylanilide hydroxamic acid, reference compound]",–,–,2130 nM,–,–,–,–,–,–,–
